Results taken from ChEMBL document CHEMBL5528016, “Design, synthesis and evaluation of novel deferasirox derivatives with high antifungal potency in vitro and in vivo” (Eur J Med Chem, 2024).
Values after ≈ are worked out from the molar mass of the structure shown.

Tests used:
[1] = Metabolic stability in mouse liver microsomes assessed as elimination rate constant; assay type: ADME, Microsome
[2] = Metabolic stability in mouse liver microsomes assessed as half life; assay type: ADME, Microsome
[3] = Metabolic stability in mouse liver microsomes assessed as intrinsic clearance; assay type: ADME, Microsome; conditions: read-out: CLH
[4] = tested on: Cryptococcus neoformans; assay: Antifungal activity against Cryptococcus neoformans H99 assessed as reduction in fungal growth incubated for 72 hrs by broth microdilution method; assay type: functional
[5] = tested on: Candida albicans; assay: Antifungal activity against Candida albicans SC5314 assessed as reduction in fungal growth incubated for 72 hrs by broth microdilution method; assay type: functional
[6] = tested on: Candida parapsilosis; assay: Antifungal activity against Candida parapsilosis ATCC 22019 assessed as reduction in fungal growth incubated for 72 hrs by broth microdilution method; assay type: functional; conditions: Lodderomyces parapsilosis
[7] = tested on: Candida tropicalis; assay: Antifungal activity against Candida tropicalis 2718 assessed as reduction in fungal growth incubated for 72 hrs by broth microdilution method; assay type: functional
[8] = tested on: Nakaseomyces glabratus; assay: Antifungal activity against Candida glabrata 537 assessed as reduction in fungal growth incubated for 72 hrs by broth microdilution method; assay type: functional
[9] = tested on: Pichia kudriavzevii; assay: Antifungal activity against Pichia kudriavzevii 4946 assessed as reduction in fungal growth incubated for 72 hrs by broth microdilution method; assay type: functional
[10] = tested on: [Candida] auris; assay: Antifungal activity against Candida auris D12 assessed as reduction in fungal growth incubated for 72 hrs by broth microdilution method; assay type: functional; conditions: Candidozyma auris

| SMILES | MIC [4] | other results |
| --- | --- | --- |
| Cc1ncc2n1-c1ccc(Cl)cc1C(c1ccccc1F)=NC2 [MIDAZOLAM] | – | k el [1]: 0.00247 s⁻¹; half-life [2]: 4.67 min; microsomal CLint [3]: 742 µL/min/mg |
| O=C(NCc1ccco1)c1ccc(-n2nc(-c3ccccc3O)nc2-c2ccccc2O)cc1 | 4 µg/mL (≈ 8.84 µM) | – |
| CN(C)CCNC(=O)c1ccc(-n2nc(-c3ccccc3O)nc2-c2ccccc2O)cc1 | 4 µg/mL (≈ 9.02 µM) | – |
| CN1CCOC(CNC(=O)c2ccc(-n3nc(-c4ccccc4O)nc3-c3ccccc3O)cc2)C1 (stereo unspecified) | 0.5 µg/mL (≈ 1.03 µM) | MIC [5]: 2 µg/mL (≈ 4.12 µM); MIC [6]: 32 µg/mL (≈ 65.9 µM); MIC [7]: 1 µg/mL (≈ 2.06 µM); MIC [8]: < 0.125 µg/mL; MIC [9]: 4 µg/mL (≈ 8.24 µM); MIC [10]: > 64 µg/mL |
| O=C(NCc1ccccc1)c1ccc(-n2nc(-c3ccccc3O)nc2-c2ccccc2O)cc1 | 4 µg/mL (≈ 8.65 µM) | – |
| O=C(NCCOc1ccccn1)c1ccc(-n2nc(-c3ccccc3O)nc2-c2ccccc2O)cc1 | 4 µg/mL (≈ 8.1 µM) | – |
| NC(=O)c1ccc(-n2nc(-c3ccccc3O)nc2-c2ccccc2O)cc1 | 4 µg/mL (≈ 10.7 µM) | – |
| CN1CCCC(CNC(=O)c2ccc(-n3nc(-c4ccccc4O)nc3-c3ccccc3O)cc2)C1 (stereo unspecified) | 0.25 µg/mL (≈ 0.517 µM) | MIC [5]: 32 µg/mL (≈ 66.2 µM); MIC [6]: 64 µg/mL (≈ 132 µM); MIC [7]: 32 µg/mL (≈ 66.2 µM); MIC [8]: < 0.125 µg/mL; MIC [9]: 16 µg/mL (≈ 33.1 µM); MIC [10]: > 64 µg/mL |
| O=C(NCc1cccnc1)c1ccc(-n2nc(-c3ccccc3O)nc2-c2ccccc2O)cc1 | 8 µg/mL (≈ 17.3 µM) | – |
| CNC(=O)c1ccc(-n2nc(-c3ccccc3O)nc2-c2ccccc2O)cc1 | 1 µg/mL (≈ 2.59 µM) | – |
| CS(=O)(=O)CCNC(=O)c1ccc(-n2nc(-c3ccccc3O)nc2-c2ccccc2O)cc1 | 1 µg/mL (≈ 2.09 µM) | – |
| O=C(NCCC1CCOCC1)c1ccc(-n2nc(-c3ccccc3O)nc2-c2ccccc2O)cc1 | 0.25 µg/mL (≈ 0.516 µM) | MIC [5]: 32 µg/mL (≈ 66 µM); MIC [6]: 32 µg/mL (≈ 66 µM); MIC [7]: 1 µg/mL (≈ 2.06 µM); MIC [8]: < 0.125 µg/mL; MIC [9]: 16 µg/mL (≈ 33 µM); MIC [10]: > 64 µg/mL |
| O=C(NCC1CCS(=O)(=O)C1)c1ccc(-n2nc(-c3ccccc3O)nc2-c2ccccc2O)cc1 (stereo unspecified) | 8 µg/mL (≈ 15.9 µM) | – |
| O=C(NC1CS(=O)(=O)C1)c1ccc(-n2nc(-c3ccccc3O)nc2-c2ccccc2O)cc1 | 1 µg/mL (≈ 2.1 µM) | – |
| O=C(NCCN1CCOCC1)c1cccc(-n2nc(-c3ccccc3O)nc2-c2ccccc2O)c1 | 1 µg/mL (≈ 2.06 µM) | – |
| O=C(NCc1ccccn1)c1ccc(-n2nc(-c3ccccc3O)nc2-c2ccccc2O)cc1 | 8 µg/mL (≈ 17.3 µM) | – |
| O=C(NN1CCOCC1)c1ccc(-n2nc(-c3ccccc3O)nc2-c2ccccc2O)cc1 | 2 µg/mL (≈ 4.37 µM) | – |
| O=C(NCC(O)c1ccccc1)c1ccc(-n2nc(-c3ccccc3O)nc2-c2ccccc2O)cc1 (stereo unspecified) | 4 µg/mL (≈ 8.12 µM) | – |
| O=C(NCCCN1CCOCC1)c1cccc(-n2nc(-c3ccccc3O)nc2-c2ccccc2O)c1 | 2 µg/mL (≈ 4 µM) | – |

| SMILES | MIC [4] | other results |
| --- | --- | --- |
| CCNC(=O)c1ccc(-n2nc(-c3ccccc3O)nc2-c2ccccc2O)cc1 | 1 µg/mL (≈ 2.5 µM) | – |
| CN1CCN(CCNC(=O)c2ccc(-n3nc(-c4ccccc4O)nc3-c3ccccc3O)cc2)CC1 | 1 µg/mL (≈ 2.01 µM) | – |
| COCCCNC(=O)c1ccc(-n2nc(-c3ccccc3O)nc2-c2ccccc2O)cc1 | 4 µg/mL (≈ 9 µM) | – |
| O=C(O)c1cccc(-n2nc(-c3ccccc3O)nc2-c2ccccc2O)c1 | 4 µg/mL (≈ 10.7 µM) | – |
| O=C(NCC(=O)N1CCOCC1)c1ccc(-n2nc(-c3ccccc3O)nc2-c2ccccc2O)cc1 | 1 µg/mL (≈ 2 µM) | – |
| O=C(NCCCC(F)(F)F)c1ccc(-n2nc(-c3ccccc3O)nc2-c2ccccc2O)cc1 | 8 µg/mL (≈ 16.6 µM) | – |
| O=C(NCCO)c1ccc(-n2nc(-c3ccccc3O)nc2-c2ccccc2O)cc1 | 4 µg/mL (≈ 9.61 µM) | – |
| O=C(NCCCn1ccnc1)c1ccc(-n2nc(-c3ccccc3O)nc2-c2ccccc2O)cc1 | 8 µg/mL (≈ 16.6 µM) | – |
| O=C1C[C@@H](NC(=O)c2ccc(-n3nc(-c4ccccc4O)nc3-c3ccccc3O)cc2)CO1 | > 64 µg/mL | – |
| O=C(NCCc1ccccc1)c1ccc(-n2nc(-c3ccccc3O)nc2-c2ccccc2O)cc1 | 8 µg/mL (≈ 16.8 µM) | – |
| O=C(NCCCO)c1ccc(-n2nc(-c3ccccc3O)nc2-c2ccccc2O)cc1 | 2 µg/mL (≈ 4.65 µM) | – |
| O=C(NCCNc1ncccn1)c1ccc(-n2nc(-c3ccccc3O)nc2-c2ccccc2O)cc1 | 0.5 µg/mL (≈ 1.01 µM) | MIC [5]: 32 µg/mL (≈ 64.8 µM); MIC [6]: > 64 µg/mL; MIC [7]: 8 µg/mL (≈ 16.2 µM); MIC [8]: 1 µg/mL (≈ 2.03 µM); MIC [9]: 16 µg/mL (≈ 32.4 µM); MIC [10]: > 64 µg/mL |
| O=C(NNc1ccccc1)c1ccc(-n2nc(-c3ccccc3O)nc2-c2ccccc2O)cc1 | 2 µg/mL (≈ 4.32 µM) | – |
| O=C(NCc1ccncc1)c1ccc(-n2nc(-c3ccccc3O)nc2-c2ccccc2O)cc1 | 4 µg/mL (≈ 8.63 µM) | – |
| Cc1nccn1CCCNC(=O)c1ccc(-n2nc(-c3ccccc3O)nc2-c2ccccc2O)cc1 | 8 µg/mL (≈ 16.2 µM) | – |
| O=C(c1ccc(-n2nc(-c3ccccc3O)nc2-c2ccccc2O)cc1)N1CCC(O)CC1 | 4 µg/mL (≈ 8.76 µM) | – |
| O=C(NCCN1CCOCC1)c1ccc(-n2nc(-c3ccccc3O)nc2-c2ccccc2O)cc1 | 0.5 µg/mL (≈ 1.03 µM) | MIC [5]: 32 µg/mL (≈ 65.9 µM); MIC [6]: 64 µg/mL (≈ 132 µM); MIC [7]: 4 µg/mL (≈ 8.24 µM); MIC [8]: < 0.125 µg/mL; MIC [9]: 8 µg/mL (≈ 16.5 µM); MIC [10]: > 64 µg/mL |
| COCCNC(=O)c1ccc(-n2nc(-c3ccccc3O)nc2-c2ccccc2O)cc1 | 0.25 µg/mL (≈ 0.581 µM) | MIC [5]: 8 µg/mL (≈ 18.6 µM); MIC [6]: > 64 µg/mL; MIC [7]: 4 µg/mL (≈ 9.29 µM); MIC [8]: < 0.125 µg/mL; MIC [9]: 1 µg/mL (≈ 2.32 µM); MIC [10]: > 64 µg/mL |
| CCCNC(=O)c1ccc(-n2nc(-c3ccccc3O)nc2-c2ccccc2O)cc1 | 4 µg/mL (≈ 9.65 µM) | – |

| SMILES | MIC [4] | other results |
| --- | --- | --- |
| O=C(NCCN1CCCCC1)c1ccc(-n2nc(-c3ccccc3O)nc2-c2ccccc2O)cc1 | 1 µg/mL (≈ 2.07 µM) | – |
| O=C(N[C@H]1CCOC1)c1ccc(-n2nc(-c3ccccc3O)nc2-c2ccccc2O)cc1 | 4 µg/mL (≈ 9.04 µM) | – |
| O=C(NCCN1CCC(F)(F)CC1)c1ccc(-n2nc(-c3ccccc3O)nc2-c2ccccc2O)cc1 | 1 µg/mL (≈ 1.92 µM) | – |
| O=C(NC1CCS(=O)(=O)C1)c1cccc(-n2nc(-c3ccccc3O)nc2-c2ccccc2O)c1 (stereo unspecified) | 4 µg/mL (≈ 8.15 µM) | – |
| O=C1CC(NC(=O)c2ccc(-n3nc(-c4ccccc4O)nc3-c3ccccc3O)cc2)CN1 (stereo unspecified) | 4 µg/mL (≈ 8.78 µM) | – |
| C[N+]1(CCNC(=O)c2ccc(-n3nc(-c4ccccc4O)nc3-c3ccccc3O)cc2)CCOCC1.[I-] | 4 µg/mL | – |
| O=C(c1ccc(-n2nc(-c3ccccc3O)nc2-c2ccccc2O)cc1)N1CCOCC1 | 4 µg/mL (≈ 9.04 µM) | – |
| O=C(NNCc1ccccc1)c1ccc(-n2nc(-c3ccccc3O)nc2-c2ccccc2O)cc1 | 8 µg/mL (≈ 16.8 µM) | – |
| CN1CCC(CNC(=O)c2ccc(-n3nc(-c4ccccc4O)nc3-c3ccccc3O)cc2)CC1 | 4 µg/mL (≈ 8.27 µM) | – |
| O=C(NCCCN1CCOCC1)c1ccc(-n2nc(-c3ccccc3O)nc2-c2ccccc2O)cc1 | 1 µg/mL (≈ 2 µM) | – |
| O=C(Nc1ccccc1)c1ccc(-n2nc(-c3ccccc3O)nc2-c2ccccc2O)cc1 | 4 µg/mL (≈ 8.92 µM) | – |
| O=C(NC1CCS(=O)(=O)CC1)c1ccc(-n2nc(-c3ccccc3O)nc2-c2ccccc2O)cc1 | 4 µg/mL (≈ 7.93 µM) | – |
| CCCCNC(=O)c1ccc(-n2nc(-c3ccccc3O)nc2-c2ccccc2O)cc1 | 4 µg/mL (≈ 9.34 µM) | – |
| CCOCCNC(=O)c1ccc(-n2nc(-c3ccccc3O)nc2-c2ccccc2O)cc1 | 1 µg/mL (≈ 2.25 µM) | – |
| CC(C)(O)CNC(=O)c1ccc(-n2nc(-c3ccccc3O)nc2-c2ccccc2O)cc1 | 2 µg/mL (≈ 4.5 µM) | – |
| O=C(NCCc1ccccn1)c1ccc(-n2nc(-c3ccccc3O)nc2-c2ccccc2O)cc1 | 0.5 µg/mL (≈ 1.05 µM) | MIC [5]: 32 µg/mL (≈ 67 µM); MIC [6]: > 64 µg/mL; MIC [7]: 64 µg/mL (≈ 134 µM); MIC [8]: < 0.125 µg/mL; MIC [9]: 4 µg/mL (≈ 8.38 µM); MIC [10]: > 64 µg/mL |
| O=C(N[C@@H]1CCOC1)c1ccc(-n2nc(-c3ccccc3O)nc2-c2ccccc2O)cc1 | 4 µg/mL (≈ 9.04 µM) | – |
| O=C1C[C@H](NC(=O)c2ccc(-n3nc(-c4ccccc4O)nc3-c3ccccc3O)cc2)CO1 | > 64 µg/mL | – |
| O=C(NCc1ncccn1)c1ccc(-n2nc(-c3ccccc3O)nc2-c2ccccc2O)cc1 | 4 µg/mL (≈ 8.61 µM) | – |
